Experiments:
[1] = biological target: T1, TREK-1 channel (Rattus norvegicus, UniProt Q920B6); experiment: Assay for TREK channel inhibition activity (whole cell patch clamp recording, COS7 cell transfected with GFP-rTREK-1); format: cell-based; details: COS-7, Table 3 (value ± spread); 101 μM [sic]; COS7 cells, GFP-rTREK-1, whole-cell patch clamp; read-out: block % at 101 μM
T1 construct: expressed in transfected cells; host or cells: COS7 (Korean Cell Line Bank), transient transfection with Effectene
T1 sequence (Q920B6 1-426): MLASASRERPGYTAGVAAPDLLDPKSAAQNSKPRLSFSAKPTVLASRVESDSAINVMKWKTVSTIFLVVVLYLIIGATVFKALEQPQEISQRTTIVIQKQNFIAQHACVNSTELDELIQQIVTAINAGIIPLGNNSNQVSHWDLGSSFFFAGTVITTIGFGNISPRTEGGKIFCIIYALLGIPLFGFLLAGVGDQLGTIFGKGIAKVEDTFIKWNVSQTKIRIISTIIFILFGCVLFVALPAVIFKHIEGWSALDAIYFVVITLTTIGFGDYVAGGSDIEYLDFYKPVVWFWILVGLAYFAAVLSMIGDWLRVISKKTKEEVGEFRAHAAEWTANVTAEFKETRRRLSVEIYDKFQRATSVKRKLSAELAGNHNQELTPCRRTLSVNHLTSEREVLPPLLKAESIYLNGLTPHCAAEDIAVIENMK
Method in brief: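 Whole-cell patch clamp was run on COS7 cells 24 h after transfection with GFP-rTREK-1, held at −70 mV, using a 1 s ramp from −100 to +100 mV. Current was taken as the difference between +100 and −100 mV values. Block % = 100 − (current after/before blocker) × 100.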

[2] = biological target: α1G T-type calcium channel (Homo sapiens, UniProt O43497); experiment: Assay for T-type calcium channel inhibition activity (FDSS6000 calcium imaging, KCl activation); format: cell-based; details: 75 s pre-treatment then KCl 75 mM, HEK293 cells expressing α1G T-type calcium channel and Kir2.1
α1G T-type calcium channel, sequence (O43497 whole entry): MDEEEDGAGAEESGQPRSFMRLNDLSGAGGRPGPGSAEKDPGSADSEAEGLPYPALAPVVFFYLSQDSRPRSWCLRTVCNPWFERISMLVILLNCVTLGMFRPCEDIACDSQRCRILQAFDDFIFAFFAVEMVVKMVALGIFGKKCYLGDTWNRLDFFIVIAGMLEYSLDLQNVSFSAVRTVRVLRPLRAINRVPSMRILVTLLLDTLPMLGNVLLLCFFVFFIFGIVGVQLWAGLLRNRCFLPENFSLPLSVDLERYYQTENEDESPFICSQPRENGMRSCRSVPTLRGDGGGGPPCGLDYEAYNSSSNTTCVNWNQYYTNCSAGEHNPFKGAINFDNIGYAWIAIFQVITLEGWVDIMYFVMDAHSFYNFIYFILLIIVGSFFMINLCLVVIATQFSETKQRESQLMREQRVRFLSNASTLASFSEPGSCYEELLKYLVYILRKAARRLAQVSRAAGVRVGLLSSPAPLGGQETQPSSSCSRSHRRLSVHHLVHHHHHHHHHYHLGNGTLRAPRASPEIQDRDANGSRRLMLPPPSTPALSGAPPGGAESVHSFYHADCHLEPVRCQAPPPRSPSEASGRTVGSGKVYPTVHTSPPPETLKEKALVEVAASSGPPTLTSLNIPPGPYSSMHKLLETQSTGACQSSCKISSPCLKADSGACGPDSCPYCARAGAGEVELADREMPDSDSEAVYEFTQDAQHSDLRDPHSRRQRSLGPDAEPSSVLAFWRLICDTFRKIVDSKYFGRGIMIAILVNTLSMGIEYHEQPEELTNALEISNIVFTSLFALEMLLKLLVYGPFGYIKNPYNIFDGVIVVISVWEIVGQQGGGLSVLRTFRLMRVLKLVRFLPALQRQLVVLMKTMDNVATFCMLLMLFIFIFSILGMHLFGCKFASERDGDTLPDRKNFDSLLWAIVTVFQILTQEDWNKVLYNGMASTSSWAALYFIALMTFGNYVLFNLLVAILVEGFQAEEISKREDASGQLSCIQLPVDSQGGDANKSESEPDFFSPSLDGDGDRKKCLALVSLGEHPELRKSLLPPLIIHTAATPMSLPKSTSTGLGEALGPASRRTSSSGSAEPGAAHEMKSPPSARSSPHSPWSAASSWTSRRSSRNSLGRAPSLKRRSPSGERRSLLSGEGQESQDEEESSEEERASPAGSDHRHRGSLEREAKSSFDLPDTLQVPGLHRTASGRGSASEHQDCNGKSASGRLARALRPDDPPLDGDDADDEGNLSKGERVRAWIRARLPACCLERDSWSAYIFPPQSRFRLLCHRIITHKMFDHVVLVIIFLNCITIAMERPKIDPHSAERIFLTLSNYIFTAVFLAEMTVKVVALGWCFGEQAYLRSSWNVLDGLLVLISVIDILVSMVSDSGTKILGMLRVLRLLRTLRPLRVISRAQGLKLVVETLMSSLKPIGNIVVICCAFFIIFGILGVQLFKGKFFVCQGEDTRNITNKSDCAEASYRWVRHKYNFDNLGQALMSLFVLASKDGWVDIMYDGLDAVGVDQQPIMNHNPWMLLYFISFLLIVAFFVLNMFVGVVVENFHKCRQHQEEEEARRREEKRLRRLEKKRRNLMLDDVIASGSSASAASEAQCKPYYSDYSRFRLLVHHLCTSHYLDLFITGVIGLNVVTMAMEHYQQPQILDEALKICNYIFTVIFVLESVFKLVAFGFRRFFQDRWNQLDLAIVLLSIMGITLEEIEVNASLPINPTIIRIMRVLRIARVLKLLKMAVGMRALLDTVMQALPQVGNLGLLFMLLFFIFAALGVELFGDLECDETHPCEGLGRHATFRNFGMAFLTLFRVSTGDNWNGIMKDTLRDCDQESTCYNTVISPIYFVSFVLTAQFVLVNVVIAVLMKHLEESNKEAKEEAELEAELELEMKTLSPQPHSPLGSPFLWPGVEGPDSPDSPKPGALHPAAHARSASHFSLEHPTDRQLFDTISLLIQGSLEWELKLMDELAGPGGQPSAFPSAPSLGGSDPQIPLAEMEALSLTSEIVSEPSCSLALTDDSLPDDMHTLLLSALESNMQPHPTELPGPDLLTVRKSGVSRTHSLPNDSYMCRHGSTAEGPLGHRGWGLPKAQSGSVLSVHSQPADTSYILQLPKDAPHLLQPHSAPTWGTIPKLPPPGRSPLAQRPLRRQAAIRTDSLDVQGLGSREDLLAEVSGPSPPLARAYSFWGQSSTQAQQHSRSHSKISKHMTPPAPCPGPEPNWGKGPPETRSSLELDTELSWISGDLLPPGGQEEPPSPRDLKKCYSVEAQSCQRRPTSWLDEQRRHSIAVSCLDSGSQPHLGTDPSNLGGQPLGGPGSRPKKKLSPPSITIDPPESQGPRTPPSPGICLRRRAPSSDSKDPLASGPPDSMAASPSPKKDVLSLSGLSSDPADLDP

| Structure (SMILES) | inhibition at 101 µM [1] [%] | inhibition [2] [%] |
| --- | --- | --- |
| Cc1ccc(F)cc1-n1nc(CNC(=O)CN2CCN(C[C@H](O)COc3ccc(C(F)(F)F)cc3)CC2)cc1CC(C)C [KKRE10221, (S)-N-((1-(5-fluoro-2-methylphenyl)-5-isobutyl-1H-pyrazol-3-yl)methyl)-2-(4-(2-hydroxy-3-(4-(trifluoromethyl)phenoxy)propyl)piperazin-1-yl)acetamide] | 83.1 ± 4.99 | 68.9 |
| Cc1ccccc1-n1nc(CNC(=O)CN2CCN(C[C@H](O)COc3ccc(C(F)(F)F)cc3)CC2)cc1CC(C)C [KKRE10222, (S)-2-(4-(2-Hydroxy-3-(4-(trifluoromethyl)phenoxy)propyl)piperazin-1-yl)-N-((5-isobutyl-1-o-tolyl-1H-pyrazol-3-yl)methyl)acetamide] | 51.2 ± 12.5 | 79.2 |
| CC(C)Cc1cc(CNC(=O)CN2CCN(C[C@@H](O)COc3ccc(F)cc3)CC2)nn1-c1cc(Cl)cc(Cl)c1 [KKRE10223, (R)-N-((1-(3,5-Dichlorophenyl)-5-isobutyl-1H-pyrazol-3-yl)methyl)-2-(4-(3-(4-fluorophenoxy)-2-hydroxypropyl)piperazin-1-yl)acetamide] | 87.6 ± 2.43 | 63.4 |
| Cc1ccc(F)cc1-n1nc(CNC(=O)CN2CCN(C[C@@H](O)COc3ccc(F)cc3)CC2)cc1CC(C)C [KKRE10224, (R)-N-((1-(5-Fluoro-2-methylphenyl)-5-isobutyl-1H-pyrazol-3-yl)methyl)-2-(4-(3-(4-fluorophenoxy)-2-hydroxypropyl)piperazin-1-yl)acetamide] | 45.1 ± 3.6 | 77.8 |
| Cc1ccccc1-n1nc(CNC(=O)CN2CCN(C[C@@H](O)COc3ccc(F)cc3)CC2)cc1CC(C)C [KKRE10225, (R)-2-(4-(3-(4-Fluorophenoxy)-2-hydroxypropyl)piperazin-1-yl)-N-((5-isobutyl-1-o-tolyl-1H-pyrazol-3-yl)methyl)acetamide] | 13.1 ± 6.19 | 81.1 |
| CC(C)Cc1cc(CNC(=O)CN2CCN(C[C@@H](O)COc3ccc(F)cc3)CC2)nn1-c1ccc(F)cc1 [KKRE10226, (R)-2-(4-(3-(4-Fluorophenoxy)-2-hydroxypropyl)piperazin-1-yl)-N-((1-(4-fluorophenyl)-5-isobutyl-1H-pyrazol-3-yl)methyl)acetamide] | 18.8 ± 7.78 | 78.8 |
| Cc1ccccc1-n1nc(CNC(=O)CN2CCN(C[C@H](O)COc3ccc(F)cc3)CC2)cc1CC(C)C [KKRE10227, (S)-2-(4-(3-(4-Fluorophenoxy)-2-hydroxypropyl)piperazin-1-yl)-N-((5-isobutyl-1-o-tolyl-1H-pyrazol-3-yl)methyl)acetamide] | 69.8 ± 4.78 | 74.7 |
| CC(C)Cc1cc(CNC(=O)CN2CCN(C[C@H](O)COc3ccc(F)cc3)CC2)nn1-c1ccc(F)cc1 [KKRE10228, (S)-2-(4-(3-(4-Fluorophenoxy)-2-hydroxypropyl)piperazin-1-yl)-N-((1-(4-fluorophenyl)-5-isobutyl-1H-pyrazol-3-yl)methyl)acetamide] | 58.6 ± 4.35 | 73.2 |
| Cc1ccc(F)cc1-n1nc(CNC(=O)CN2CCN(C[C@H](O)COc3ccc(F)cc3)CC2)cc1CC(C)C [KKRE10229, (S)-N-((1-(5-Fluoro-2-methylphenyl)-5-isobutyl-1H-pyrazol-3-yl)methyl)-2-(4-(3-(4-fluorophenoxy)-2-hydroxypropyl)piperazin-1-yl)acetamide] | 74.1 ± 2.75 | 77.6 |
| CC(C)Cc1cc(CNC(=O)CN2CCN(C[C@H](O)COc3ccc(F)cc3)CC2)nn1-c1cc(Cl)cc(Cl)c1 [KKRE10230, (S)-N-((1-(3,5-Dichlorophenyl)-5-isobutyl-1H-pyrazol-3-yl)methyl)-2-(4-(3-(4-fluorophenoxy)-2-hydroxypropyl)piperazin-1-yl)acetamide] | 78.1 ± 2.95 | 60 |
